Molecules are shown by their SMILES.

The test system of assay [1] is HSV-1. Kind of assay: HSV-1 IE mRNA levels in infected HFF cells. The assay is classed as cell-based. Conditions: increasing concentration of DMOG, HFF, FIG. 7. The procedure: FIG. 13 is a line graph showing viral IE (ICP4, ICP27, and ICP22) and control (S15, Sp1, and TBP) mRNA levels in HFF cells treated with DMSO or the indicated concentrations of ML324 for 3 hours and infected with HSV-1 (0.1 PFU per cell) for 3 hours. *P<0.0001, two-way ANOVA with Tukey's post hoc test. Data are means±SEM.
HSV-1 IE mRNA levels of ICP4 and ICP27 decrease in cells infected in the presence of DMOG. Human foreskin fibroblast (HFF) cells were infected with HSV-1 at 0.1 PFU/cell for 3 hrs in the presence of increasing concentrations of DMOG. Cells were harvested and the levels of viral IE (ICP4, ICP27) and cell control (s15) mRNAs were assessed by qRT-PCR.
All experiments were performed as described in Liang et al., Sci. Transl. Med. 5, 167ra5 (2013). N-(3-(dimethylamino)propyl)-4-(8-hydroxyquinolin-6-yl)benzamide (designated ML324) has the following characteristics: N-(3-(dimethylamino)propyl)-4-(8-hydroxyquinolin-6-yl)benzamide (1). LC-MS: rt (min)=3.033; ^1H NMR (400 MHz, DMSO-d6) δ 1.84-1.98 (m, 2H), 2.79 (s, 3H), 2.80 (s, 3H), 3.12 (ddd, J=10.2 Hz, 5.4 Hz and 5.2 Hz, 2H), 3.37 (q, 2H), 7.50 (s, 1H), 7.66 (dd, J=8.2 Hz and 4.3 Hz, 1H), 7.84 (s, 1H), 7.88-7.94 (m, 2H), 7.96-8.02 (m, 2H), 8.50 (d, J=8.2 Hz, 1H), 8.71 (t, J=5.6 Hz, 1H), 8.90 (d, J=4.1 Hz, 1H), 9.34 (brs, 1H); HRMS (ESI) m/z (M+H)^+ C21H24N3O2, 350.1867. found 350.1863.

The test system of assay [2] is HSV-1. Briefly: HSV-1 ICP4 protein levels in infected HeLa cells (quantitative western blot). The format is cell-based. To be noted: increasing concentrations of DMOG, HSV-1 0.1 PFU/cell 3 hrs, FIG. 6. The procedure:
HSV-1 IE protein levels of ICP4 decrease in cells infected in the presence of DMOG. HeLa cells were infected with HSV-1 at 0.1 PFU/cell for 3 hrs in the presence of increasing concentrations of DMOG. Cells were harvested and the levels of viral IE proteins (ICP4 shown) were determined by quantitative western blot analyses. As the concentration of DMOG is increased, the levels of ICP4 decrease (FIG. 6).
A general note: In western blotting, separated proteins are transferred to a membrane and probed.

For another assay, the system named is HSV-1 IE promoters. Kind of assay: ChIP of H3K9me3 / histone H3 on HSV-1 IE promoters in HeLa cells. Conditions: 2 mM DMOG 4 hours before infection; FIG. 8. The format is cell-based. The procedure:
Hela cells were pretreated with 2 mM DMOG for 4 hours prior to infection. Cells were infected with 0.1 pfu/cell of HSV-1 for 3 hrs. Standard Chromatin-Immunoprecipitation procedures were preformed (Liang, Vogel, Narayanan, Peng & Kristie, 2009, Nature Med 15:1312-17) to determine the levels of total histone H3 or tri-methylated histone H3 associated with the indicated viral IE promoters.

The subject of another assay is CMV. Kind of assay: CMV IE gene expression in HFF cells. The assay is classed as cell-based. Conditions: increasing concentration of DMOG, FIG. 9. The source says: CMV IE gene expression (IE1 and UL37) and control TBP (Tata binding Protein) in the presence of increasing concentrations of DMOG were also studied (FIG. 9). HFF were pretreated with the indicated concentration of DMOG for 3.5 hrs and infected with CMV for 4 hrs. Total RNA was extracted, reverse-transcribed, and cDNAs were quantitated by qPCR using primers to viral IE genes or control genes.

Assay [3] relates to HSV-1. Briefly: HSV-1 lytic viral yields from HFF cells. The assay is classed as cell-based. Conditions: HFF pretreated 5 hrs, HSV-1 0.1 pfu/cell 24 hrs; FIG. 10. The method, then:
FIG. 14 is a bar graph showing viral yields from HFF cells treated with DMSO or ML324 for 3 hours and infected with HSV-1 (0.1 PFUper cell) for 24 hours in the presence of the drugs. *P<0.004, one-way ANOVA with Dunnett's post hoc test. Data are means±SEM.
HSV-1 lytic viral yields decrease in the presence of DMOG (FIG. 10). HFF cells were pretreated with DMSO control or JMJD2 inhibitor DMOG for 5 hrs and infected with 0.1 pfu/cell of HSV-1 for 24 hrs in the presence of DMSO or DMOG. The yield of infectious virus derived from each treatment were determined by tittering on Vero cells according to standard procedures.

The test system of assay [4] is HSV-1. The format is cell-based, Balb/c mice. More on the design: reduction of viral reactivation (viral yield): unit of the concentration uncertain. The method, then:
FIG. 18 is a dot plot showing latently infected ganglia that were explanted in the presence of DMSO, ACV (100 mM), or ML324 (50 mM) for 48 hrs. Viral yields were determined from one half of each ganglia at 48 hrs (DMSO, ACV, ML324) and from the other half of each ganglia after drug reversal for an additional 72 hrs (ACV-R, ML324-R) [Wilcoxon matched pairs signed rank test, ACV vs ACV-R n=8, ML324 vs ML324-R n=10]. Data are means±SEM.
FIG. 19 is a dot plot showing viral yields from HSV-1 latently infected trigeminal ganglia that were explanted in the presence of DMSO, or 2 mM DMOG or 50 mM ML324 for 48 hours (DMSO versus DMOG: P=0.0015, Wilcoxon matched-pairs signed rank test; n=12; DMSO versus ML324: P<0.0001; n=20). Data are means±SEM.
Viral yields decrease from HSV-1 latently infected ganglia explanted in the presence of LSD1 or JMJD2 inhibitors (FIG. 11). Balb/c mice were infected with 5×10^6 PFU HSV-1 (strain F) per eye after corneal scarification. Latently infected mice were sacrificed 45 days post clearance of the primary infection and trigeminal ganglia were rapidly explanted into culture in the presence of 2 mM DMOG, 2 mM TCP, or control (DMSO or ACV, acyclovir) for 48 hours. Post explant incubation, the ganglia were homogenized and briefly sonicated. The reactivated viral yield of each ganglia was determined by titering the clarified supernatant on Vero cells. Statistical comparisons were made using Wilcoxon signed rank test (paired ganglia) with a statistical significance of <0.05. Each data point was the result of a single ganglia divided and treated in the presence and absence of DMSO and DMOG or DMSO and TCP. Therefore, a Wilcoxon signed rank test was used to assess differences between each treated and untreated sample. The significant difference between DMSO control and DMOG was p=0.0018. This test used an exact p-value for small sample sizes with an a level of 0.05. n=20. Analyses were made using Prism (V5.0a) and are expressed as the mean+/−s.e.m.

Assay [5] has as its system HSV-1. Briefly: IE mRNA levels in explanted latently infected ganglia. The assay is classed as cell-based, mice. Conditions: 7 hours post explant; ICP4 and ICP27 mRNA; FIG. 12. The procedure:
Total RNA was isolated and subjected to reverse transcription. The resulting cDNAs were analyzed for viral Immediate Early ICP4 and ICP27 mRNAs relative to an infected cell standard by nested or qPCR. In accordance with an embodiment of the invention, DMOG reduces the levels of viral mRNAs in explanted/reactivated ganglia.
IE gene transcription is repressed in explanted latently infected sensory ganglia in the presence of DMOG (FIG. 12). Total RNA was extracted from ganglia of latently infected mice explanted in the presence of control ACV or DMOG for 7 hours. Random primed cDNA was produced from total RNA using RNAqueous-4PCR and RETROscript (Ambion, Austin, Tex., USA) according to the manufacturer's recommendations. cDNAs were quantitated by nested PCR or qPCR using primers specific for the HSV-1 ICP4 and ICP27 IE mRNAs.

As to `COC(=O)CNC(=O)C(=O)OC` [DMOG, N-methoxyoxoacetyl-glycine methyl ester], in the assay with HSV-1 [1] (HSV-1 0.1 PFU/cell 3 hrs), the “mRNA levels of ICP4 and ICP27” value is reported as “decrease”. Moreover, the “control mRNA (s15) level decrease” value with HSV-1 [1] is recorded as “does not”. Further, the “levels of ICP4 protein” value with HSV-1 [2] is recorded as “decrease”. In addition, the “repressive chromatin (H3K9me3, H3) on HSV-1 IE promoters” value in the assay with HSV-1 IE promoters is recorded as “accumulation of repressive chromatin”. Moreover, the “control mRNA (TBP) level decrease” value with CMV is “does not”. In the assay on CMV (HFF pretreated 3.5 hrs, CMV 4 hrs), the “CMV IE mRNA levels (IE1/IE7 and UL37)” value is reported as “decrease”. Further, the “HSV-1 lytic viral yields” value with HSV-1 [3] was “decrease”. For the same compound, the “viral yield from explanted latently infected ganglia” value in the assay with HSV-1 [4] (2 mM DMOG, 2 mM TCP or ACV, 48 hours, FIG. 11) was “decreases”. Besides, the “reduction of viral reactivation (viral yield)” value in the assay on HSV-1 [4] (2 (unit uncertain), 48 hours explant, FIG. 19) was roughly 1.5 log. Besides, the “IE gene transcription in explanted latently infected sensory ganglia” value in the assay with HSV-1 [5] is recorded as “repressed”.

(Values after patent publication US8871789B2, “Method of preventing or treating viral infection” (The United States of America, as represented by the …, priority 2010, dated 2014).)
